Measured values: patent US20190274334A1 (MARS, INCORPORATED, priority 2016, published 2019)
Like-named read-outs stand apart in the source and are kept apart here. *1 amine or outer side, *2 acyl side, *3 side chain or, on linkers, in order; H or OH if unused. Where a SMILES comes first, the peptide text is derived from it. [ ]: non-standard residue; d: D form. γGlu = O=C(O)[C@H](CCC(=O)[*:2])N[*:1]; Abu = CC[C@H](N)C(=O)O

Molecular target: feline CaSR (f:CaSR) (Felis catus, UniProt A0ABI7YY68)
Sequence (A0ABI7YY68 entry or part of it): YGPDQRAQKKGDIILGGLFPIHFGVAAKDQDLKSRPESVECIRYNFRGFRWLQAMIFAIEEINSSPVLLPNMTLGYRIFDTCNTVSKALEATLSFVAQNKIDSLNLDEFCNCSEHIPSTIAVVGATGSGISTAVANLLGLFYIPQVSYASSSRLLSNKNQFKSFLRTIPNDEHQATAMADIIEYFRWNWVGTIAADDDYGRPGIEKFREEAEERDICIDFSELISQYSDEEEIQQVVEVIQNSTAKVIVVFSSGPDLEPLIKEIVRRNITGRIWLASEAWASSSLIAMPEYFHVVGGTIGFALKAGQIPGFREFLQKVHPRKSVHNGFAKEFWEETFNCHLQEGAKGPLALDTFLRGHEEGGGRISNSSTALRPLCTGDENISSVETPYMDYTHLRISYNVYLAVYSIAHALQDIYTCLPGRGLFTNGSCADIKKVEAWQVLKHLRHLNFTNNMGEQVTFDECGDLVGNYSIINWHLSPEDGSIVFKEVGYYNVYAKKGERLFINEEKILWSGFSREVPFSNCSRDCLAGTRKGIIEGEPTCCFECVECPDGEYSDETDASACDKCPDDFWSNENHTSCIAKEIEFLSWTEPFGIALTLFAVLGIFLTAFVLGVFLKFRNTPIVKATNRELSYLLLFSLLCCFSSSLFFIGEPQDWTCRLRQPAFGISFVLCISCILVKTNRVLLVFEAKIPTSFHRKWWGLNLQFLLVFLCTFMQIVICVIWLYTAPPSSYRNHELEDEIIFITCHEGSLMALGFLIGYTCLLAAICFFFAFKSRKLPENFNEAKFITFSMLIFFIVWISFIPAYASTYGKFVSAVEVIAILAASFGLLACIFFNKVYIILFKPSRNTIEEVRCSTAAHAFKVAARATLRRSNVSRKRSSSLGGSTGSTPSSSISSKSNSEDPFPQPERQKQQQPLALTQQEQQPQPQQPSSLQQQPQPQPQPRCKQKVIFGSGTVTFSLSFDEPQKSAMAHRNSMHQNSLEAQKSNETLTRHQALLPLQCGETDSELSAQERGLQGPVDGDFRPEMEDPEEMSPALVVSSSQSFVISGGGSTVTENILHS
Assay: cell-based
Format: cell-based
[1] = double-injection protocol, agonist mode and PAM mode
[2] = PAM mode, CaCl2 injected at EC20, read-out: EC50 (PAM)
[3] = agonist mode, read-out: EC50 (Agonist)

Row | Molecule | Activity Type [1] | further results
1 | N[C@@H](CC(=O)N[C@@H](Cc1ccccc1)C(=O)O)C(=O)O [H-Asp(Phe-OH)—OH] | Agonist | –
2 | N[C@@H](CP(=O)(O)O)C(=O)O (stereo in doubt) [2-Amino-3-phosphonopropionic acid] | Agonist | –
3 | CC(C)Oc1ccc(C(CCNC(C)c2ccc(Cl)cc2)C(C)C)cc1 (centres unmarked) [N-(1-(4-chlorophenyl)ethyl)-3-(4-isopropoxyphenyl)-4-methylpentan-1-amine] | PAM | EC50 [2]: 135 µM
4 | COC(=O)C[C@H](N)C(=O)O [L-Aspartic acid beta-methyl ester] | Agonist | –
5 | N[C@@H](CCC(=O)N[C@@H](Cc1ccc(O)cc1)C(=O)O)C(=O)O [γ-Glu-Tyr] | Agonist | –
6 | NC[C@@H]1O[C@H](O[C@H]2[C@@H](O)[C@H](O[C@@H]3[C@@H](O)[C@H](N)C[C@H](N)[C@H]3O[C@H]3O[C@H](CN)[C@@H](O)[C@H](O)[C@H]3N)O[C@@H]2CO)[C@H](N)[C@@H](O)[C@@H]1O [Neomycin, reference compound] | – | Activity Type: Agonist EC50 1.87 mM; EC50: 1870 µM
7 | N[C@@H](CCC(=O)N[C@@H](CS)C(=O)O)C(=O)O [H-Glu(Cys-OH)—OH] | – | Activity Type: Agonist
8 | CC(C)Oc1ccc(C(CCNC(C)c2ccc(Cl)cc2)c2ccccc2)cc1 (centres unmarked) [N-(1-(4-chlorophenyl)ethyl)-3-(4-isopropoxyphenyl)-3-phenylpropan-1-amine] | PAM | EC50 [2]: 4.49 µM
9 | Cc1ccc(C(CCNC(C)c2ccccc2)c2ccco2)cc1 (centres unmarked) [3-(furan-2-yl)-N-(1-phenylethyl)-3-(p-tolyl)propan-1-amine] | PAM | EC50 [2]: 0.752 µM
10 | COc1ccc(C(CCNC(C)c2ccc(Cl)cc2)C(C)C)cc1 (centres unmarked) [N-(1-(4-chlorophenyl)ethyl)-3-(4-methoxyphenyl)-4-methylpentan-1-amine] | PAM | EC50 [2]: 1.44 µM
11 | CC(NCCC(c1ccccc1)C1CCOC(C)(C)C1)c1ccccc1 (centres unmarked) [3-(2,2-dimethyltetrahydro-2H-pyran-4-yl)-3-phenyl-N-(1-phenylethyl)propan-1-amine] | PAM | EC50 [2]: 0.988 µM
12 | CC(C)C[C@H](NC(=O)C[C@H](N)C(=O)O)C(=O)O [H-Asp(Leu-OH)—OH] | Agonist | –
13 | Cc1ccc(C(C)(O)c2nc3ccccc3s2)c(C)c1 (centres unmarked) [1-(benzo[d]thiazol-2-yl)-1-(2,4-dimethylphenyl)ethanol] | PAM | EC50 [2]: 0.0511 µM
14 | Geneticin [reference compound] | Agonist | –
15 | N[C@@H](CCC(=O)O)C(=O)O [L-Glutamic acid] | – | Activity Type: Agonist
16 | [Mg] [Magnesium] | Agonist | –
17 | Poly-L-arginine | – | Activity Type: Agonist EC50 1.01 uM; EC50 (read-out: EC50 (Agonist)): 1.01 µM
18 | NC(=O)CC[C@H](NC(=O)CC[C@H](NC(=O)CC[C@H](N)C(=O)O)C(=O)O)C(=O)O [H-Glu(Glu(Gln-OH)—OH)—OH] | Agonist | –
19 | N[C@@H](CCS(=O)(=O)O)C(=O)O [L-Homocysteic acid] | Agonist | –
20 | N[C@@H](CCC(=O)N[C@@H](CSCCO)C(=O)NCC(=O)O)C(=O)O [S-(2-Hydroxyethyl)glutathione] | Agonist | –
21 | CC[C@H](NC(=O)CC[C@H](N)C(=O)O)C(=O)O | Agonist | –
22 | CSC[C@H](NC(=O)CC[C@H](N)C(=O)O)C(=O)NCC(=O)O [S-Methylglutathione] | Agonist | –

Row | Molecule | Activity Type [1] | further results
23 | N[C@@H](CCCC(=O)O)C(=O)O [L-2-Aminoadipic acid] | Agonist | –
24 | N[C@@H](CCC(=O)N[C@@H](CCC(=O)O)C(=O)O)C(=O)O [H-Glu(Glu-OH)—OH] | Agonist | –
25 | CC(C)[C@H](NC(=O)CC[C@H](N)C(=O)O)C(=O)O [γ-Glu-Val] | Agonist | –
26 | COc1ccccc1C(CCNC(C)c1ccc(Cl)cc1)c1ccc(OC(C)C)cc1 (centres unmarked) [N-(1-(4-chlorophenyl)ethyl)-3-(4-isopropoxyphenyl)-3-(2-methoxyphenyl)propan-1-amine] | PAM | EC50 [2]: 0.714 µM
27 | NCCCNCCCCNCCCN [Spermine] | – | Activity Type: Agonist
28 | [Gd] [Gadolinium] | Agonist | EC50 [3]: 295 µM
29 | N[C@@H](CCC(=O)N[C@@H](CSCc1c[nH]c2ccccc12)C(=O)NCC(=O)O)C(=O)O [3-Glutathionyl-S-methylindole] | Agonist | –
30 | Cc1ccc(C(CCNC(C)c2cccs2)c2ccco2)cc1 (centres unmarked) [3-(furan-2-yl)-N-(1-(thiophen-2-yl)ethyl)-3-(p-tolyl)propan-1-amine] | PAM | EC50 [2]: 2.25 µM
31 | C[Se]C[C@H](N)C(=O)O [Se-(Methyl)selenocysteine] | Agonist | EC50 [3]: 4470 µM
32 | CNC(C)[C@@H]1CC[C@@H](N)[C@@H](O[C@H]2[C@H](O)[C@@H](O[C@H]3OC[C@](C)(O)[C@H](NC)[C@H]3O)[C@H](N)C[C@@H]2N)O1 (some centres unmarked) [Gentamicin, reference compound] | Agonist | EC50 [3]: 990 µM
33 | NCCCCNCCCN [Spermidine] | Agonist | –
34 | N[C@@H](C[C@H](O)C(=O)O)C(=O)O [2S,4S-γ-Hydroxy-L-glutamic acid] | Agonist | –
35 | N[C@@H](CCC(=O)N[C@@H](Cc1ccccc1)C(=O)O)C(=O)O [γ-Glu-Phe] | Agonist | EC50 [3]: 2320 µM
36 | N[C@@H](CCC(=O)N[C@@H](Cc1c[nH]c2ccccc12)C(=O)O)C(=O)O [H-Glu(Trp-OH)—OH] | Agonist | –
37 | CC(NCCC(c1ccccc1)c1ccco1)c1ccccc1 (centres unmarked) [3-(furan-2-yl)-3-phenyl-N-(1-phenylethyl)propan-1-amine] | PAM | EC50 [2]: 0.458 µM
38 | NC(CC(C(=O)O)C(=O)O)C(=O)O (racemic) [γ-Carboxy-DL-glutamic acid] | – | Activity Type: Agonist
39 | C[C@H](NC(=O)C[C@H](N)C(=O)O)C(=O)O [H-Asp(Ala-OH)—OH] | Agonist | –
40 | OCC(CNC1CCCOc2cc(Cl)ccc21)Cc1ccccn1 (centres unmarked) [3-((8-chloro-2,3,4,5-tetrahydrobenzo[b]oxepin-5-yl)amino)-2-(pyridin-2-ylmethyl)propan-1-ol] | PAM | –
41 | NC(CC(F)C(=O)O)C(=O)O (racemic) [4-Fluoro-DL-glutamic acid] | Agonist | –
42 | N[C@@H](CCP(=O)(O)O)C(=O)O (stereo in doubt) [2-Amino-4-phosphonobutyric acid] | Agonist | –
43 | Cc1ccc(C(C)NC(C)c2cc3ccccc3[nH]2)cc1C (centres unmarked) [N-(1-(1H-indol-2-yl)ethyl)-1-(3,4-dimethylphenyl)ethanamine] | PAM | –
44 | Cc1ccc(C(CCNC(C)c2ccc(Cl)cc2)c2ccco2)cc1 (centres unmarked) [N-(1-(4-chlorophenyl)ethyl)-3-(furan-2-yl)-3-(p-tolyl)propan-1-amine] | PAM | EC50 [2]: 3.68 µM

Row | Molecule | Activity Type [1] | further results
45 | COC(=O)C(NC1CCc2c(F)cccc21)c1cccc(C#N)c1 (centres unmarked) [methyl 2-(3-cyanophenyl)-2-((4-fluoro-2,3-dihydro-1H-inden-1-yl)amino)acetate] | PAM | EC50 [2]: 58.9 µM
46 | COc1cc(C(O)(c2nc3ccccc3s2)C(F)(F)F)c(OC)cc1N (centres unmarked) [1-(4-amino-2,5-dimethoxyphenyl)-1-(benzo[d]thiazol-2-yl)-2,2,2-trifluoroethanol] | PAM | EC50 [2]: 2.42 µM
47 | CC(NC1CCc2c(F)cc(Br)cc21)c1ccncc1 (centres unmarked) [6-bromo-4-fluoro-N-(1-(pyridin-4-yl)ethyl)-2,3-dihydro-1H-inden-1-amine] | PAM | –
48 | CC(NCC1CCCN(C)C1c1cccs1)c1cc(Cl)c(N)c(Cl)c1 (centres unmarked) [2,6-dichloro-4-(1-(((1-methyl-2-(thiophen-2-yl)piperidin-3-yl)methyl)amino)ethyl)aniline] | PAM | EC50 [2]: 8.68 µM
49 | CC(C)[C@H](NC(=O)CC[C@H](N)C(=O)O)C(=O)NCC(=O)O [γ-Glu-Val-Gly] | Agonist | EC50 [3]: 4220 µM
50 | NC(=O)CC[C@H](NC(=O)CC[C@H](N)C(=O)O)C(=O)O [H-Glu(Gln-OH)—OH] | Agonist | –
51 | [Ba] [Barium] | Agonist | EC50 [3]: 1170 µM
52 | [Pr] [Praseodymium] | Agonist | EC50 [3]: 398 µM
53 | COC(=O)C(N)CC(=O)O (racemic) [DL-Aspartic acid alpha-methyl ester] | – | Activity Type: Agonist
54 | [Sr+2] [Strontium] | Agonist | –
55 | Cc1ccc(C2(CCNC(C)c3ccc(Cl)cc3)CCOC(C)(C)C2)cc1 (centres unmarked) [1-(4-chlorophenyl)-N-(2-(2,2-dimethyl-4-(p-tolyl)tetrahydro-2H-pyran-4-yl)ethyl)ethanamine] | PAM | –
56 | N[C@@H](CS(=O)(=O)O)C(=O)O [L-Cysteic acid] | Agonist | –
57 | N[C@]1(C(=O)O)C[C@H](C(=O)O)C1 [(1s,3s)-1-aminocyclobutane-1,3-dicarboxylic acid] | – | Activity Type: Agonist
58 | N[C@@H](CC(=O)O)C(=O)O [L-Aspartic acid] | – | Activity Type: Agonist EC50 4.11 mM
59 | Poly-L-ornithine | – | Activity Type: Agonist EC50 0.240 mM; EC50 (read-out: EC50 (Agonist)): 240 µM
60 | CC(NCCC(Cc1ccccc1)c1ccco1)c1ccc(Cl)cc1 (centres unmarked) [N-(1-(4-chlorophenyl)ethyl)-3-(furan-2-yl)-4-phenylbutan-1-amine] | PAM | EC50 [2]: 4 µM
61 | CC[C@H](NC(=O)CC[C@H](N)C(=O)O)C(=O)NCC(=O)O [Ophthalmic Acid] (γGlu-[Abu]-Gly-OH) | Agonist | EC50 [3]: 2660 µM
62 | C[C@@H](NCCCc1cccc(C(F)(F)F)c1)c1cccc2ccccc12 [Cinacalcet, reference compound] | – | Activity Type: PAM EC50 0.746 uM
63 | COc1ccc(C(CCNC(C)c2ccc(Cl)cc2)CCC(C)C)cc1 (centres unmarked) [N-(1-(4-chlorophenyl)ethyl)-3-(4-methoxyphenyl)-6-methylheptan-1-amine] | PAM | EC50 [2]: 115 µM
64 | N[C@@H](CCC(=O)N[C@@H](CS)C(=O)NCC(=O)O)C(=O)O [Glutathione] | – | Activity Type: Agonist EC 50 6.39 mM
65 | O=P(O)(O)CP(=O)(O)O [Methylenediphosphonic acid] | Agonist | EC50 [3]: 1290 µM
